How the values were obtained:
[1] = tested on: Mycosphaerella graminicola; Anamorph: Septoria tritici; Bayer Code SEPTTR; assay: Fungicidal activity against leaf blotch of wheat, three-day curative (3DC); type: in vivo; details: wheat plants (variety Yuma), % disease control rating
Description: (§1) Evaluation of Fungicidal Activity: Leaf Blotch of Wheat (Mycosphaerella graminicola; Anamorph: Septoria tritici; Bayer Code […]) Wheat plants (variety Yuma) were grown from seed in a greenhouse in 50% mineral soil/50% soil-less Metro mix until the first leaf was fully emerged, with 7-10 seedlings per pot. These plants were inoculated with an aqueous spore suspension of Septoria tritici either prior to or after fungicide treatments. After inoculation the plants were kept in 100% relative humidity (one day in a dark dew chamber followed by two to three days in a lighted dew chamber) to permit spores to germinate and infect the leaf. The plants were then transferred to a greenhouse for disease to develop. The following table presents the activity of typical compounds of the present disclosure when evaluated in these experiments. The effectiveness of the test compounds in controlling disease was determined by assessing the severity of disease on treated plants, then converting the severity to percent control based on the level of disease on untreated, inoculated plants.

[2] = tested on: Mycosphaerella graminicola; Anamorph: Septoria tritici; Bayer Code SEPTTR; assay: Fungicidal activity against leaf blotch of wheat, one-day protectant (1DP); type: in vivo; details: wheat plants (variety Yuma), % disease control rating
Description: as §1

Row | Structure (SMILES) | SEPTTR 100 PPM 3DC [1] | SEPTTR 100 PPM 1DP [2] | melting point [°C]
1 | Cc1ccc(C(=O)n2cc(F)c(=N)n(C)c2=O)cc1 [Compound 2] | A (76-100) | A (76-100) | 103 to 107
2 | Cn1c(=N)c(F)cn(C(=O)c2cc(Cl)cc(Cl)c2)c1=O [Compound 1, 1-(3,5-dichlorobenzoyl)-5-fluoro-4-imino-3-methyl-3,4-dihydropyrimidin-2(1H)-one] | A (76-100) | A (76-100) | 141.6 to 142.6

Reference: patent publication US9271497B2, “1-(substituted-benzoyl)-5-fluoro-4-imino-3-methyl-3,4-dihydropyrimidin-2(1H)-one derivatives” (DOW AGROSCIENCES LLC, priority 2012, dated 2016)
